This note sets out measurements from ChEMBL document CHEMBL6127020, “Discovery of aminopiperidine based potent & novel topoisomerase inhibitor with broad spectrum anti-bacterial activity” (Bioorg Med Chem Lett, 2024).

In brackets after ≈: the same amount, converted by molar mass. A value given as a limit tells only on which side of the number the result lay.

The test system of experiment [1] is Staphylococcus aureus. Description: Antibacterial activity against Staphylococcus aureus ATCC 29213 assessed as inhibition of bacterial growth. The class given is functional.
The test system of experiment [2] is Escherichia coli. The experiment in a line: Antibacterial activity against Escherichia coli ATCC 25922 assessed as inhibition of bacterial growth. The class given is functional.

A word on the MIC: it is the smallest concentration in the dilution series that meets the test's criterion for growth inhibition. On to `N#Cc1cnn2ccc(=O)n(CCN3CCC(NCc4cc5c(cn4)OCCC5)CC3)c12`, for which the MIC in experiment [1] and in experiment [2] was 2 µg/mL (≈ 4.61 µM) in each case.
For `N#Cc1ccc2ccc(=O)n(CCN3CCC(NCc4cc5c(cn4)OCCC5)CC3)c2c1`, the figures for the MIC in experiment [1] and in experiment [2] were 0.125 µg/mL (≈ 0.282 µM) and 0.5 µg/mL (≈ 1.13 µM), respectively.
The matching figures for `N#Cc1ccc2ccc(=O)n(CCN3CCC(NCc4ccc5c(c4)CCCO5)CC3)c2c1`: under 0.125 µg/mL and 0.25 µg/mL (≈ 0.565 µM).
The matching figures for `c1ccc2c(c1)-c1ccccc1C2CCN1CCC(NCc2cc3c(cn2)OCCC3)CC1`: over 16 µg/mL and over 16 µg/mL.
The corresponding values for `O=c1c2ccccc2c2ncccc2n1CCN1CCC(NCc2cc3c(cn2)OCCC3)CC1` are 2 µg/mL (≈ 4.26 µM) and over 16 µg/mL.
Regarding `N#Cc1ccc2ccc(=O)n(CCN3CCC(NCc4ccc5c(c4)OC(C(=O)O)CO5)CC3)c2c1` (stereo unspecified), the MIC in experiment [1] and in experiment [2] was over 16 µg/mL in each case.
Turning to `CCOC(=O)C1COc2cc(CNC3CCN(CCn4c(=O)ccc5ccc(C#N)cc54)CC3)ccc2O1` (stereo unspecified), the MIC in experiment [1] and in experiment [2] was over 16 µg/mL in each case.
Consider `CN1C(=O)COc2ccc(CNC3CCN(CCn4c(=O)ccc5ccc(C#N)cc54)CC3)cc21`, for which the MIC in experiment [1] was determined as 8 µg/mL (≈ 17 µM); in experiment [2] it was 16 µg/mL (≈ 33.9 µM).
The corresponding values for `O=S1(=O)c2ccccc2-c2ccccc2N1CCN1CCC(NCc2cc3c(cn2)OCCC3)CC1` are over 16 µg/mL and over 16 µg/mL.
The matching figures for `c1ccc2c(c1)Sc1ccccc1N2CCN1CCC(NCc2cc3c(cn2)OCCC3)CC1`: 16 µg/mL (≈ 33.9 µM) and over 16 µg/mL.
The matching figures for `N#Cc1ccc2ccc(=O)n(CCN3CCC(NCc4ccc5c(c4)OCC(C(=O)O)O5)CC3)c2c1` (stereo unspecified): over 16 µg/mL and over 16 µg/mL.
Consider `c1ccc2c(c1)c1ccccc1n2CCN1CCC(NCc2cc3c(cn2)OCCC3)CC1`, for which the MIC in experiment [1] and in experiment [2] was over 16 µg/mL throughout.
For `CN1C(=O)C(C)(C)Oc2ccc(CNC3CCN(CCn4c(=O)ccc5ccc(C#N)cc54)CC3)cc21`, the MIC in experiment [1] and in experiment [2] was over 16 µg/mL throughout.
`N#Cc1ccc2ccc(=O)n(CCN3CCC(NCc4ccc5c(c4)OCC(=O)N5)CC3)c2c1`: the MIC in experiment [1] and in experiment [2] was over 16 µg/mL each time.
On to `O=c1ccc2ccc(C(F)(F)F)cc2n1CCN1CCC(NCc2cc3c(cn2)OCCC3)CC1`, for which the MIC in experiment [1] turned out to be 0.125 µg/mL (≈ 0.257 µM); in experiment [2], 2 µg/mL (≈ 4.11 µM).
The matching figures for `CCOC(=O)C1COc2ccc(CNC3CCN(CCn4c(=O)ccc5ccc(C#N)cc54)CC3)cc2O1` (stereo unspecified): over 16 µg/mL and over 16 µg/mL.
The matching figures for `N#Cc1ccc2ccc(=O)n(CCN3CCC(NCc4ccc5c(c4)NC(=O)CS5(=O)=O)CC3)c2c1`: over 16 µg/mL and over 16 µg/mL.
The matching figures for `O=c1ccc2ccccc2n1CCN1CCC(NCc2cc3c(cn2)OCCC3)CC1`: 1 µg/mL (≈ 2.39 µM) and 16 µg/mL (≈ 38.2 µM).
In the case of `O=S1(=O)C=Cc2ccccc2N1CCN1CCC(NCc2cc3c(cn2)OCCC3)CC1`, the MIC in experiment [1] and in experiment [2] was over 16 µg/mL each time.
For the compound `O=S1(=O)c2ccccc2N(CCN2CCC(NCc3cc4c(cn3)OCCC4)CC2)c2ccccc21`, the minimum inhibitory concentration (MIC) in experiment [1] and in experiment [2] was over 16 µg/mL throughout.
Regarding `O=c1ccn2nccc2n1CCN1CCC(NCc2cc3c(cn2)OCCC3)CC1`, the MIC in experiment [1] turned out to be 2 µg/mL (≈ 4.9 µM); in experiment [2] it was 8 µg/mL (≈ 19.6 µM).
The corresponding values for `O=c1c2ccccc2c2ccccc2n1CCN1CCC(NCc2cc3c(cn2)OCCC3)CC1` are 1 µg/mL (≈ 2.13 µM) and over 16 µg/mL.
The matching figures for `N#Cc1ccc2ccc(=O)n(CCN3CCC(NCc4ccc5c(c4)CCCC5)CC3)c2c1`: under 0.125 µg/mL and 1 µg/mL (≈ 2.27 µM).
